# According to ChEMBL document CHEMBL5329176, “Design, synthesis, and biological evaluation of novel pyrimidin-2-amine derivatives as potent PLK4 inhibitors” (RSC Med Chem, 2023):
# Assays:
# [1] = target: T1, Serine/threonine-protein kinase PLK4 (Homo sapiens, UniProt O00444); experiment: Inhibition of human recombinant PLK4 incubated for 1 hrs by LanthaScreen Eu kinase FRET assay
# T1 sequence (O00444 whole entry): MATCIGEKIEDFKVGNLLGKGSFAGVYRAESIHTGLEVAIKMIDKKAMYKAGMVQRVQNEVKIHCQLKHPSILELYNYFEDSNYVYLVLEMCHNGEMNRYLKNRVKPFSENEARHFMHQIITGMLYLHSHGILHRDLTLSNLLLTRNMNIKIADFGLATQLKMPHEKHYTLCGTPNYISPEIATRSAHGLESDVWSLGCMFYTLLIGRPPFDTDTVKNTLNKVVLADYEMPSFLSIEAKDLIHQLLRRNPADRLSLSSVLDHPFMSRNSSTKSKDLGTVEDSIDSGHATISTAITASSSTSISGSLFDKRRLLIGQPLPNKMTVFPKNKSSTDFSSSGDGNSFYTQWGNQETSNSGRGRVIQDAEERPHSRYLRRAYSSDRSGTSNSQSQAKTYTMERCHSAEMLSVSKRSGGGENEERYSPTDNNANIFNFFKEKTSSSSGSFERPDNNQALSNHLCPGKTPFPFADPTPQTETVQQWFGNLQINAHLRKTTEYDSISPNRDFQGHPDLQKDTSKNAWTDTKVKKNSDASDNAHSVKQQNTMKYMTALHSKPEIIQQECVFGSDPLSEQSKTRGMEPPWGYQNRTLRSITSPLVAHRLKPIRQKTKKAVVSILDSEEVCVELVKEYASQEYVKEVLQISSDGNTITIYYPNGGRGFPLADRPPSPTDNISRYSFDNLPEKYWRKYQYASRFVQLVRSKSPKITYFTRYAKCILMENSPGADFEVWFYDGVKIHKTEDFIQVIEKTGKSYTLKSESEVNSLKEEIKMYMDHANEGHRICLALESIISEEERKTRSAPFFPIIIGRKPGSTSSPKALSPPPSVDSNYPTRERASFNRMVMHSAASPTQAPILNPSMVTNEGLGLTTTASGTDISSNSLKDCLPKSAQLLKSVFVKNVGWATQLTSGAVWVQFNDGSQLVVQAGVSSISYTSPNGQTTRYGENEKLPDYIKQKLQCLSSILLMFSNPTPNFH
# [2] = Metabolic stability in human liver microsomes assessed as half life in presence of NADPH as co-foctor incubated for 60 mins by LC-MS/MS analysis; type: ADME, Microsome
# [3] = Metabolic stability in human liver microsomes assessed as intrinsic clearance in presence of NADPH as co-foctor incubated for 60 mins by LC-MS/MS analysis; type: ADME, Microsome; settings: read-out: CLH
# [4] = Metabolic stability in human liver microsomes assessed as parent compound remaining in presence of NADPH as co-foctor and measured after 60 mins by LC-MS/MS analysis; type: ADME, Microsome; settings: read-out: Stability
# [5] = Metabolic stability in human liver microsomes assessed as parent compound remaining in absence of NADPH as co-foctor and measured after 60 mins by LC-MS/MS analysis; type: ADME, Microsome; settings: read-out: Stability
# MCF7 = experiment: Antiproliferative activity against human MCF7 cells assessed as cell growth inhibition incubated for 5 days by MTT assay; type: functional, cell-based; settings: MCF7, 120 h
# BT-474 = experiment: Antiproliferative activity against human BT-474 cells assessed as cell growth inhibition incubated for 5 days by MTT assay; type: functional, cell-based; settings: BT-474, 120 h
# MDA-MB-231 = experiment: Antiproliferative activity against human MDA-MB-231 cells assessed as cell growth inhibition incubated for 5 days by MTT assay; type: functional, cell-based; settings: MDA-MB-231, 120 h
Structure (SMILES),IC50 [1] [nM],also measured
Nc1ccc(Sc2ccnc(Nc3ccc(N4CCOCC4)cc3)n2)cc1F,56,–
Fc1cccc(Sc2ccnc(Nc3ccc(N4CCOCC4)cc3)n2)c1,79,–
Nc1ccc(Sc2ccnc(Nc3ccc(N4CCOCC4)cc3)n2)cc1,17,half-life [2]: 58.3 min; microsomal CLint [3]: 23.8 µL/min/mg; remaining at 1 h [4]: 48.7%; remaining at 1 h [5]: 94.4%; IC50 (MCF7): 8720 nM; IC50 (BT-474): > 20000 nM; IC50 (MDA-MB-231): 5110 nM
Nc1ccc(Sc2ccnc(Nc3ccc(N4CCOCC4)cc3)n2)c(F)c1,35,IC50 (MCF7): 3450 nM; IC50 (BT-474): 9320 nM; IC50 (MDA-MB-231): 8080 nM
CNc1ccc(Sc2ccnc(Nc3ccc(N4CCOCC4)cc3)n2)cc1,71,–
Nc1ccc(Sc2ccnc(Nc3ccc(C(=O)N4CCOCC4)cc3)n2)cc1,39,IC50 (MCF7): 3860 nM; IC50 (BT-474): 16200 nM; IC50 (MDA-MB-231): 4470 nM
Nc1ccc(Sc2ccnc(Nc3cccc(N4CCOCC4)c3)n2)cc1,45,IC50 (MCF7): > 20000 nM; IC50 (BT-474): 12900 nM; IC50 (MDA-MB-231): 5150 nM
Fc1ccc(Sc2ccnc(Nc3ccc(N4CCOCC4)cc3)n2)cc1,198,–
Nc1ccc(Sc2ccnc(Nc3ccc(N4CCSCC4)cc3)n2)cc1,1100,–
Nc1cccc(Sc2ccnc(Nc3ccc(N4CCOCC4)cc3)n2)c1,153,–
Brc1cccc(Sc2ccnc(Nc3ccc(N4CCOCC4)cc3)n2)c1,2380,–
Nc1ccc(Sc2ccnc(Nc3ccc(N4CCNCC4)cc3)n2)cc1,139,–
Brc1ccccc1Sc1ccnc(Nc2ccc(N3CCOCC3)cc2)n1,219,–
Clc1cccc(Sc2ccnc(Nc3ccc(N4CCOCC4)cc3)n2)c1,1430,–
Nc1ccc(Sc2ccnc(Nc3cccc(CN4CCOCC4)c3)n2)cc1,137,–
c1cc(Sc2ccc3[nH]ncc3c2)nc(Nc2ccc(N3CCOCC3)cc2)n1,125,–
Clc1ccccc1Sc1ccnc(Nc2ccc(N3CCOCC3)cc2)n1,142,–
Nc1ccc(Sc2ccnc(Nc3ccccc3)n2)cc1,519,–
